Assay results published in PubChem BioAssay AID1850 (Southern Research Specialized Biocontainment Screening …, 2009).

tested on: Salmonella Typhi PhoP-promoter GFP reporter, fluorescence, 4 h; experiment: PhoP regulon inhibitors, Salmonella typhi PhoP promoter GFP reporter, confirmatory (AID 1850)

`Cc1ccc(-c2cc(-c3ccc(C)cc3)[n+](-c3ccccc3)c(-c3ccc(C)cc3)c2)cc1` and `Cc1ccc(C)c(Nc2cc(C)nc3ccccc23)c1` are within 1.5-fold of each other in IC50: 35 µM for the first, 51.5 µM for the second.

`CCCCOc1ccc(C(=O)OC2CC(C)N(C)CC2C)cc1` (stereo unspecified) and `CCCCOc1ccc(CSC(=N)N)cc1Cl` are within 1.5-fold of each other in IC50: 86.3 µM for the first, 77.7 µM for the second.

`O=C(/C=C/c1ccccc1Cl)c1ccccc(=O)c1O` and `O=C(/C=C/c1cccs1)NC(=S)NNC(=O)c1ccccc1O` are within 1.5-fold of each other in IC50: 34.8 µM for the first, 35.2 µM for the second.

Going from `COc1c(N2CCN(C(=S)NCc3ccccc3)C(C)C2)c(F)cc2c(=O)c(C(=O)O)cn(C3CC3)c12` (stereo unspecified) to `CC1CCc2cc(F)cc3c(=O)c(C(=O)O)cn1c23` (stereo unspecified), the IC50 falls from 36.1 µM to 6.15 µM (5.9-fold). The second is the more potent here.

`COc1cccc(NC2=NC3(CCCCC3)N=C(N)N2)c1` and `COc1ccc(Nc2ccnc3ccccc23)cc1` are within 1.5-fold of each other in IC50: 75.6 µM for the first, 52.2 µM for the second.

`Cc1ccc2nc(NCc3ccccc3)[nH]c2c1` and `CC1=NN(c2nc3ccccc3[nH]2)C(=O)C1Cc1ccccc1` (stereo unspecified) are within 1.5-fold of each other in IC50: 62.3 µM for the first, 50.3 µM for the second.

`O=C(CN1CC(c2ccccc2)CC1=O)N/N=C/c1cc(Br)ccc1O` (stereo unspecified) and `Cc1ccc(NC(=O)CNCc2ccccc2)cc1Br` are within 1.5-fold of each other in IC50: 65.8 µM for the first, 52.9 µM for the second.

Compared with `Cc1ccccc1Nc1cc(C)c2c(O)cccc2n1`, `COc1ccc(/C=N/Nc2cc(C)nc3ccccc23)cc1` is 1.6-fold higher in IC50: 6.42 µM for the first, 10.4 µM for the second.

First: C#CCOCCOCCOCCNc1nc(N2CCN(C(=O)CCCCCCCCCCNC(=O)[C@H](CCCCN)n3cc(C)nn3)CC2)nc(N2CCN(C(=O)CCCCCCCCCCNC(=O)[C@H](CO)n3cc(CCCSC)nn3)CC2)n1
Second: C#CCOCCOCCOCCNc1nc(N2CCN(C(=O)CCCCCCCCCCNC(=O)[C@H](CCCCN)n3cc(CCO)nn3)CC2)nc(N2CCN(C(=O)CCCCCCCCCCNC(=O)[C@H](CCCCN)n3cc(CCO)nn3)CC2)n1
The IC50 of the first is 1.9-fold higher: 113 µM for the first, 60.3 µM for the second.

`Clc1ccc2c(c1)C(N1CCNCC1)Cc1ccccc1S2` (stereo unspecified) and `CN1CCN(C2=Cc3cc(Cl)ccc3Sc3cc(F)ccc32)CC1` are within 1.5-fold of each other in IC50: 35.5 µM for the first, 45 µM for the second.

`O=C(NC(=S)NNC(=O)c1cccs1)c1ccc(Br)o1` and `Cc1cccc(C(=O)NNC(=S)NC(=O)c2cccs2)c1` are within 1.5-fold of each other in IC50: 64.3 µM for the first, 65.7 µM for the second.

`O=C(N/N=C/c1ccc([N+](=O)[O-])o1)c1ccc(O)cc1` and `Cc1ccc(OCC(=O)N/N=C/c2ccc([N+](=O)[O-])o2)cc1` are within 1.5-fold of each other in IC50: 19.9 µM for the first, 21.9 µM for the second.

`CN(C)CCCN(C(=O)CCc1ccccc1)c1nc2ccc(Br)cc2s1` and `CN(C)CCCN(C(=O)COc1ccccc1)c1nc2ccc(Cl)cc2s1` are within 1.5-fold of each other in IC50: 69 µM for the first, 77.8 µM for the second.

`Cc1cc(C)n(-c2nc(NCCN(C)C)c3c4c(sc3n2)CCCC4)n1` and `Cc1ccc(CNCCC2=CCCCC2)cc1` are within 1.5-fold of each other in IC50: 45.3 µM for the first, 46.1 µM for the second.

`CCCCCCCCCCOC(=O)C[N+](C)(C)CC1CCCCC1O` (stereo unspecified) and `CCCCCOc1ccc(C)cc1CN(CCCl)CCCl` are within 1.5-fold of each other in IC50: 34.9 µM for the first, 30.4 µM for the second.

`NC1=NC[C@H](Cc2ccc(O)cc2)N1CCC12CC3CC(CC(C3)C1)C2` and `Nc1cccc2nc3ccccc3cc12` are within 1.5-fold of each other in IC50: 35.8 µM for the first, 35.7 µM for the second.

Going from `CN(C)c1ccc(Nc2nc(N)c3ccccc3n2)cc1` to `c1ccc(Nc2nc(NCC3CCCO3)c3ccccc3n2)cc1` (stereo unspecified), the IC50 falls from 30.9 µM to 5 µM (6.2-fold).

Going from `CCCCCC(CC(=O)NO)C(=O)NC(C(=O)N1CCCC1CO)C(C)C` (stereo unspecified) to `CCCCN(CCCC)C(=O)c1cn(CC)c2cc(N3CCN(C)CC3)c(F)cc2c1=O`, the IC50 falls from 15.5 µM to 4.23 µM (3.7-fold). The second is the more potent here.

Compared with `Cc1cc(NS(=O)(=O)c2ccc(NC(=O)Nc3cccc(Cl)c3)cc2)no1`, `O=C(Nc1nnc(-c2ccco2)o1)c1cccc(Cl)c1` is 4-fold lower in IC50: 148 µM for the first, 36.9 µM for the second. The second is the more potent here.

`CCN1c2ccccc2NC2N=C(OC)C(c3ccccc3)C21` (stereo unspecified) and `O=C(CCc1ccccc1)NNC(=O)c1ccccn1` are within 1.5-fold of each other in IC50: 78.9 µM for the first, 74 µM for the second.

First: O=[N+]([O-])c1cc(Cl)c2cccnc2c1O
Second: O=C(N/N=C/c1cc([N+](=O)[O-])ccc1O)C1CC1
The IC50 of the first is 9.7-fold lower: 3.05 µM for the first, 29.5 µM for the second. The first is the more potent here.

First: C=CCNc1ncnc2c1[nH]c1ccc(C)cc12
Second: Cc1cc(Cl)c(OCCCNCc2ccccc2)c(Br)c1
The IC50 of the first is 3.6-fold lower: 18.9 µM for the first, 68.6 µM for the second. The first is the more potent here.

`O=C1c2cccc3cccc(c23)C(=O)C1(O)O` and `Cc1ccccc1C(=O)N/N=C/c1ccc([N+](=O)[O-])s1` are within 1.5-fold of each other in IC50: 48.4 µM for the first, 35.5 µM for the second.

`Cc1ccc(C(=O)N/C(=C\c2ccc(-c3ccc(Cl)cc3)o2)C(=O)NCCCN(C)C)cc1` and `O=C(Cn1nc(CNc2ccc(Br)cc2)[n+]2c1CCCCC2)c1ccc([N+](=O)[O-])cc1` are within 1.5-fold of each other in IC50: 37.6 µM for the first, 40.1 µM for the second.

Going from `Oc1cc(Cl)ccc1Oc1ccc(Cl)cc1Cl` to `NC(N)=N/N=C/c1ccc(OCc2ccc(Cl)cc2Cl)cc1`, the IC50 rises from 0.67 µM to 18.4 µM (27-fold). The first is the more potent here.

`c1cc2c(cc1C1CCCCC1)c1c3n2CCCNC3CCC1` (stereo unspecified) and `CCOC(=O)N1CCC(=NNc2ccnc3cc(Cl)ccc23)CC1` are within 1.5-fold of each other in IC50: 31.2 µM for the first, 35.3 µM for the second.

First: O=C(/C=C/c1ccc(F)cc1)NC(=S)NNC(=O)c1cnccn1
Second: Nc1nonc1-n1nnc(C(=O)N/N=C/c2cc(Br)ccc2O)c1CSC1=NCCS1
The IC50 of the first is 3.7-fold lower: 28.6 µM for the first, 105 µM for the second. The first is the more potent here.

Going from `Nc1ncn([C@@H]2O[C@H](CO)[C@@H](O)[C@H]2O)c(=O)n1` to `CC(C(=O)NC1C=CS(=O)(=O)C1)N1C(=O)/C(=C/c2cccc(Cl)c2)SC1=S` (stereo unspecified), the IC50 rises from 42.5 µM to 68.6 µM (1.6-fold).
